# Test results from patent US20020091086A1, “Peptides that block viral infectivity and methods of use thereof” (priority 1999, published 2002).
# Several values for one entry are separate records, joined by “and”; a condition that tells them apart may be missing. Equal entries are not always repeated. Where two headings read alike, the source gives them in different places. Peptide text beside a SMILES is read from it.
# Assays:
# [1] = test system: HIV-2; experiment: HIV-2 infectivity assay in H9 cells, RT activity in supernatant; format: cell-based; conditions: for HIV-2 infection, result in words: summary of Experiments 1-3
# [2] = test system: HIV-1; conditions: for reduction of HIV-1 infectivity, p24 antigen in cell supernatants: Table 6; for p24 / p24 (OD) / reduction (%): Experiment 5, H9 cells
# Protocol: In Experiment 5, (Table 6) approximately 200,000 H9 cells were infected with HIV-1 at 25 TCID50 to test the inhibitory effect of different concentrations of peptides GPG-NH2, GKG-NH2 and CQG-NH2 and combinations of these peptides. As above, H9 cells were resuspended with or without the different peptides at varying concentrations in 1 ml of RPMI 1640 medium supplemented with 10% (v/v) heat-inactivated fetal bovine serum (FBS), penicillin (100 u/ml), streptomycin (100 u/ml), and Polybrene (2 μg/ml). Thereafter, viruses were added at 25 TCID50 in a volume of 20-30 μl. Cells were incubated with the indicated virus at 37° C. for 1 hr then pelleted at 170×g for 7 minutes. The cells were then washed three times in RPMI medium without peptides at room temperature and pelleted at 170×g for 7 minutes, as above. After the final wash, the cells were resuspended in RPMI culture medium containing the peptides in a 24-well plate (Costar corporation) and kept at 37° C. in 5% CO2 with humidity.
# Culture supernatants were collected when the medium was changed at 4, 7, and 14 days post infection. The replication of each virus was monitored by detecting the presence of p24 in the supernatants. HIV p24 antigen was determined using a commercially available HIV p24 antigen detection kit (Abbott). The results are presented as absorbance values (OD) and higher absorbance indicates a higher protein concentration and greater viral infection. In some cases, serial dilutions of the supernatants were made so as to more accurately detect p24 concentration.
# The percent reduction tabulated in Table 6 was calculated by dividing amount of p24 antigen detected in the peptide-treated sample by the amount of p24 antigen detected in the control sample, multiplying this dividend by 100 to obtain a percentage, and subtracting the dividend percentage by 100%.
# [3] = test system: normal human lymphomonocytic cells (PBMC); experiment: viability of cultured monocytes and lymphocytes; format: cell-based; conditions: as high as 2 mM; exposure as long as 4 days
# Protocol: Next, the toxicity to normal human lymphomonocytic cells (PBMC) was examined. […] The effect of GPG-NH2 on in vitro proliferative response of human mononuclear cells was also tested.
# [4] = biological target: T1, BSA (Bos taurus, UniProt P02769); experiment: dialysis-based binding assay with 14C-GPG-NH2, BSA; conditions: dialysis 2 days at 4° C. against 27.5 μM 14C-GPG-NH2; buffer 1.816
# T1 construct: purchased Sigma
# Protocol: (§1) A dialysis-based binding assay was conducted using a dialysis membrane with a pore size of less than 10 kD. (Slide-A-Lyzer, Pierce). Fifty microliters of a 10 μM stock of the recombinant proteins p24 and gp120 (gifts from the AIDS program, NCIB) and BSA (Sigma) were introduced into separate dialysis membranes and the proteins were dialyzed at 4° C. for 2 days against a 500 ml solution composed of 150 mM NaCl and 50 mM Tris-HCl, pH 7.4 buffer and 27.5 μM of ^14C-GPG-NH2 (Amersham Ltd. UK). Subsequently, ten or five microliter aliquots of the dialyzed p24, gp120, and BSA were removed and mixed with 3 ml of ReadySafe (Beckman) in a scintillation vial. The C^14 was then detected by scintillation counting.
# [5] = biological target: T2, recombinant p24 (Human immunodeficiency virus type 1 group M subtype B, UniProt P04591); experiment: dialysis-based binding assay with 14C-GPG-NH2, p24; parameters: species or system HIV-1
# T2 construct: purchased AIDS program, NCIB (gift, not bought)
# Protocol: as §1
# [6] = test system: HIV-1 SF-2 virus; experiment: combination of GPG-NH2 with AZT or Ritonavir in HUT78 cells, p24; format: cell-based
# [7] = test system: HIV-1 DNA; experiment: Southern blot of proviral DNA in HIV-1 infected H-9 cells; format: cell-based; conditions: 0-2,000 μM; first 24 h
# Protocol: To study proviral DNA and viral RNA synthesis, DNA and RNA from HIV-1 infected H-9 cells cultured in the presence of a small peptide were prepared at various time points (0-48 h).
# [8] = Experiment 3, 5 μM (of each tripeptide)
# [9] = Experiment 3, 20 μM (of each tripeptide)
Molecule,"Day 7 RT HIV-2 ([1]; Experiment 1, 100 μM) [OD]","Day 10 RT HIV-2 ([1]; Experiment 1, 100 μM) [OD]","Day 7 RT HIV-2 ([1]; Experiment 2, 100 μM) [OD]","Day 10 RT HIV-2 ([1]; Experiment 2, 100 μM) [OD]","Day 7 RT HIV-2 [1, 8] [OD]","Day 10 RT HIV-2 [1, 8] [OD]","Day 7 RT HIV-2 [1, 9] [OD]","Day 10 RT HIV-2 [1, 9] [OD]","HIV-2 infection, result in words [1]","p24 ([2]; Day 7 HIV-1, 100 μM) [pg/mL]","p24 (OD) ([2]; Day 7 HIV-1, 100 μM)","reduction (%) ([2]; Day 7 HIV-1, 100 μM)","p24 ([2]; Day 7 HIV-1, 300 μM) [pg/mL]","p24 (OD) ([2]; Day 7 HIV-1, 300 μM)","reduction (%) ([2]; Day 7 HIV-1, 300 μM)","p24 ([2]; Day 14 HIV-1, 100 μM) [pg/mL]","p24 (OD) ([2]; Day 14 HIV-1, 100 μM)","reduction (%) ([2]; Day 14 HIV-1, 100 μM)","p24 ([2]; Day 14 HIV-1, 300 μM) [pg/mL]","p24 (OD) ([2]; Day 14 HIV-1, 300 μM)",also measured
"NCCCC[C@H](NC(=O)CN)C(=O)NCC(N)=O [GKG-NH2, glycyl-lysyl-glycine amide] (H-Gly-Lys-Gly-NH2)",0.160,0.147,0.283,1.637,1.769,2.510,1.759,2.646,inhibit or prevent HIV-2 and SIV infection,1830,0.566 × 10^1 OD,95,388,1.08 OD,99,551000,1.48 × 10^3 OD,61,870,0.33 × 10^1 OD,"Day 7 RT HIV-2 ([1]; Experiment 3, 100 μM): 0.828 OD; Day 10 RT HIV-2 ([1]; Experiment 3, 100 μM): 1.947 OD; reduction of HIV-1 infectivity, p24 antigen in cell supernatants ([2]; 300 μM): ~100%; p24 ([2]; Day 7 HIV-1, 1000 μM): 273 pg/mL; p24 (OD) ([2]; Day 7 HIV-1, 1000 μM): 0.79 OD; reduction (%) ([2]; Day 7 HIV-1, 1000 μM): 100%; reduction (%) ([2]; Day 14 HIV-1, 300 μM): 100%; p24 ([2]; Day 14 HIV-1, 1000 μM): 240 pg/mL; p24 (OD) ([2]; Day 14 HIV-1, 1000 μM): 0.11 × 10^1 OD; reduction (%) ([2]; Day 14 HIV-1, 1000 μM): 100%"
"NCC(=O)N1CCC[C@H]1C(=O)NCC(N)=O [GPG-NH2, glycyl-prolyl-glycine amide] (H-Gly-Pro-Gly-NH2)",0.735,0.145,0.093,0.575,1.735,2.329,0.252,1.305,inhibit or prevent HIV-2 and SIV infection,160,0.508 OD,100,180,0.557 OD,100,663,1.76 OD,100,498,1.35 OD,"viability of cultured monocytes and lymphocytes [3]: did not appreciably affect the viability; radioactive GPG-NH2 associated with BSA [4]: 1.674 μCi/ml; p24 ([2]; Day 7 HIV-1, 20 μM): 421 pg/mL; p24 (OD) ([2]; Day 7 HIV-1, 20 μM): 1.159 OD; reduction (%) ([2]; Day 7 HIV-1, 20 μM): 99%; p24 ([2]; Day 14 HIV-1, 20 μM): 40600 pg/mL; p24 (OD) ([2]; Day 14 HIV-1, 20 μM): 1.12 × 10^2 OD; reduction (%) ([2]; Day 14 HIV-1, 20 μM): 97%; reduction (%) ([2]; Day 14 HIV-1, 300 μM): 100%; radioactive GPG-NH2 associated with p24 ([5]; dialysis 2 days at 4° C. against 27.5 μM 14C-GPG-NH2, buffer 1.816): 13.712 μCi/ml; times buffer, p24 ([5]; dialysis against 27.5 μM 14C-GPG-NH2): 7.5 times buffer and 7.551 times buffer; effect on inhibition of HIV-1 replication in the presence of AZT ([6]; combination with AZT): synergistically; antiviral effect together with Ritonavir ([6]; combination with Ritonavir): additive antiviral effect; HIV-1 entry and proviral DNA synthesis [7]: no inhibitory effect"
cystyl-glutaminyl-glycine amide [CQG-NH2],0.217,0.296,1.241,2.501,1.760,2.466,1.748,2.721,inhibit or prevent HIV-2 and SIV infection,5620,1.51 × 10^1 OD,86,1920,0.59 × 10^1 OD,95,1.47e+06,0.48 × 10^4 OD,0,2400,0.11 × 10^2 OD,"Day 7 RT HIV-2 ([1]; Experiment 3, 100 μM): 1.715 OD; Day 10 RT HIV-2 ([1]; Experiment 3, 100 μM): 2.815 OD; reduction of HIV-1 infectivity, p24 antigen in cell supernatants ([2]; 300 μM): ~100%; p24 ([2]; Day 7 HIV-1, 1000 μM): 320 pg/mL; p24 (OD) ([2]; Day 7 HIV-1, 1000 μM): 0.91 OD; reduction (%) ([2]; Day 7 HIV-1, 1000 μM): 99%; reduction (%) ([2]; Day 14 HIV-1, 300 μM): 100%; p24 ([2]; Day 14 HIV-1, 1000 μM): 280 pg/mL; p24 (OD) ([2]; Day 14 HIV-1, 1000 μM): 0.13 × 10^1 OD; reduction (%) ([2]; Day 14 HIV-1, 1000 μM): 100%"
